Measurements as given in patent US10485747B2, “Hair-dye composition” (KAO CORPORATION, priority 2014, dated 2019).

Experiment: pKa, dissociation state and displayed color of the azo dyes
Assay type: physicochemical
Conditions: proton dissociated
Description: Thus, in the hair dye composition of the present invention having pH (25° C.) of 7.5 to 12, almost 80% or more of these azo dyes are present in an anionic state where a proton(s) is dissociated.

| SMILES | color displayed when a proton(s) dissociates |
| --- | --- |
| CSc1nsc(/N=N/c2ccc(O)c(Cl)c2)n1 [Example A-1] | red |
| NS(=O)(=O)c1ccc2nsc(/N=N/c3ccc(O)c(Cl)c3)c2c1 [Example A-2] | blue |
| Cn1nccc1/N=N/c1ccc(O)c(Cl)c1 [Example A-3] | yellow |
